Experimental data as given in patent US20160045487A1, “COMPOSITIONS AND METHODS FOR TREATING NEUROPATHY” (CHILDEREN'S MEDICAL CENTER CORPORATION, priority 2013, published 2016).

Experiments:
[1] = test system: STZ-induced diabetic mice; assay: Hargreaves thermal nociception test in STZ-induced diabetic mice; assay type: in vivo, mouse; conditions: topical cream for 16 weeks from hyperglycemia; tests from week 8
Excerpt: To explore the utility of XIB4035 in a more clinically relevant model, diabetic peripheral neuropathy was selected because more than 50% of all diabetic patients develop some form of peripheral neuropathy, particularly SFN. Streptozotocin (STZ) induced diabetic model was chosen, in which a single injection of STZ kills pancreatic beta cells causing diabetes and produces SFN symptoms several weeks later. Upon becoming hyperglycemic, STZ injected mice were topically treated daily with either control or XIB4035 containing cream for 16 weeks. Thermal nociceptive tests began 8 weeks after initiation of treatment and were repeated every two weeks.
Adult female C57 Bl/6J mice were made diabetic (blood glucose >15 mmol/L) by injection of STZ (90 mg/kg i.p.) on two consecutive days, with confirmation of hyperglycemia made 7 days after STZ delivery. Paw thermal response latency of the right paw was measured every two weeks from weeks 8-16 of diabetes using a modified Hargeaves test, as described
The cream containing XIB4035 (1.5 mM, ZereneX Molecular Ltd., Manchester, UK) consisted of N-methyl-pyrrolidone (6.25%), isopropyl myristate (6.25%) and petroleum jelly (87.5%). Control cream had the same ingredients without XIB4035. Cream was applied twice daily to the hind paws of mice starting at P21 for a period of 4 weeks for prophylactic treatment of GFAP-DN-erbB4. […]

GFRα1/RET = biological target: T1, GFRα1/RET (UniProt P35546+Q62997); assay: RET phosphorylation in N2A cells transfected with GFRα1; assay type: cell-based, rat GFRα1 in murine N2A cells
T1 construct: N2A cells (which express RET) transfected with GFRα1 or GFRα3 expression constructs; expressed in transfected cells; host or cells: Neuro2A (N2A) cells; GFRα1 plasmid was a gift from Dr. Milbrandt; RET is endogenous
Experimental: (§1) Since the original report argued that XIB4035 displaces GDNF binding to GFRα1 expressing cells (FIG. 2 in Tokugawa et al., Neurochem Int 42, 81-86 (2003).), potentially ARTN, on TH-luciferase activity and Ret phosphorylation. […] In this experiment, cells were treated with GDNF or ARTN with or without XIB4035 for 10 minutes and cell lysates were either collected immediately or treatment was washed out and replaced with growth media for 30, 60, or 120 minutes. […] Therefore, we tested cells expressing only one GFRα using either N2A cells (which express RET) transfected with GFRα1 or GFRα3 expression constructs, or B(E)2-C cells, which express only GFRα2 together with RET. […] The GFRα1 or GFRα3 transfected N2A cells were then treated with XIB4035 alone, the appropriate ligand for the expressed receptor alone, or XIB4035 and ligand in combination for 10 minutes, and collected lysates immediately after treatment or 60 minutes after washout. […] Similar results were obtained with GFRα2 and NRTN using B(E)2-C cells (FIG. 8). Thus, XIB4035 is a positive modulator of signaling by GDNF family ligands and their receptors, not an agonist for GFRα1 as previously reported.
For phosphorylated Ret immunoblot experiments, cells were treated with various combinations of molecules for 10 minutes and either collected immediately or had treatment washed out and returned to control treatment media for the times indicated prior to cell collection. Lysates were collected in buffer containing: 50 mM Tris-HCL, 1% TX-100, 0.25% Deoxycholic acid, 150 mM sodium chloride, 1 mM EDTA, 0.1 mM sodium fluoride, 0.1 mM sodium pyrophosphate, 0.02 mM sodium orthovanadate, and protease inhibitors Immunoblots were blocked in 5% bovine serum albumin in tris-buffered saline+0.2% Tween 20+0.1 mM sodium fluoride, 0.1 mM sodium pyrophosphate, and 0.02 mM sodium orthovanadate and probed in blocking solution using anti-phospotyrosine (4G10) mouse monoclonal antibody (1:2000; EMD Milipore Corp., Billerica, Mass.). […]

GFRα2/RET = biological target: T2, GFRα2/RET (Homo sapiens, UniProt O00451+P07949); assay: NRTN/GFRα2-induced RET phosphorylation in B(E)2-C cells; assay type: cell-based; conditions: 2 nM NRTN with 20 μM XIB4035, 10 minutes, then 60 minutes growth medium
T2 construct: B(E)2-C cells, which express only GFRα2 together with RET; endogenous in cells; host or cells: B(E)2-C / BE(2)-C cells
Experimental: B(E)2-C cells, which express GFRα2, were treated under different conditions (no treatment, 2 nM NRTN, or 2 nM NRTN with 20 μM XIB4035) for 10 minutes. Cells were either lysed immediately or after incubation in growth medium for an additional 60 minutes.
as §1, with “Thus, XIB4035 is a positive modulator of signaling by GDNF family ligands and their receptors, not an agonist for GFRα1 as previously reported.” left out

[2] = test system: mutant and wild type mice; assay: Observation for side effects of chronic topical treatment; assay type: in vivo, mouse; conditions: treated twice a day for 7 weeks
Excerpt: Importantly, given the potential need for chronic application of XIB4035, the question of whether XIB4035 produces side effects in both mutant and wild type mice was examined.

ErbB2/ErbB3 = biological target: T3, ErbB2/ErbB3 (Rattus norvegicus, UniProt P06494+Q62799); assay: NRG1-dependent activation of ErbB2/ErbB3 in L6 muscle cells; assay type: cell-based
T3 construct: endogenous in cells; host or cells: L6 muscle cells

wild type mice = assay: Electron microscopy of sciatic nerve Remak bundles, wild type mice; assay type: in vivo, mouse; conditions: WT mice; XIB4035 cream 4 weeks
Experimental: As a first test, a cream containing XIB4035 (1.5 mM) was applied directly to the hind paws of GFAP-DN-erbB4 and wild type mice twice daily for a period of 4 weeks starting prior to symptom onset (P21). Mice of both genotypes were also treated with the base cream containing no drug for control. Mice were tested for responses to a noxious thermal stimulus prior to the initiation of treatment and every 7 days for the duration of the experiment.
The cream containing XIB4035 (1.5 mM, ZereneX Molecular Ltd., Manchester, UK) consisted of N-methyl-pyrrolidone (6.25%), isopropyl myristate (6.25%) and petroleum jelly (87.5%). Control cream had the same ingredients without XIB4035. Cream was applied twice daily to the hind paws of mice starting at P21 for a period of 4 weeks for prophylactic treatment of GFAP-DN-erbB4. Diabetic mice were treated twice daily for 8 weeks after streptozotocin (STZ) injection prior to onset of hyperglycemia and for another 8 weeks during neuropathy testing. Cream treatment in therapeutic studies using GFAP-DN-erbB4 mice was performed twice daily beginning after onset of SFN at P28 and either continued for 5 weeks (chronic treatment) or 1 week (acute treatment).
Tissue was prepared as in (Lacomis, supra). Briefly, mice were perfused intracardially with 2% paraformaldehyde, 2.5% gluteraldehyde and 0.03% picric acid in 0.1 M cacodylate buffer (pH 7.2). […]

T1 sequence (Q62997 25-430 limits assumed): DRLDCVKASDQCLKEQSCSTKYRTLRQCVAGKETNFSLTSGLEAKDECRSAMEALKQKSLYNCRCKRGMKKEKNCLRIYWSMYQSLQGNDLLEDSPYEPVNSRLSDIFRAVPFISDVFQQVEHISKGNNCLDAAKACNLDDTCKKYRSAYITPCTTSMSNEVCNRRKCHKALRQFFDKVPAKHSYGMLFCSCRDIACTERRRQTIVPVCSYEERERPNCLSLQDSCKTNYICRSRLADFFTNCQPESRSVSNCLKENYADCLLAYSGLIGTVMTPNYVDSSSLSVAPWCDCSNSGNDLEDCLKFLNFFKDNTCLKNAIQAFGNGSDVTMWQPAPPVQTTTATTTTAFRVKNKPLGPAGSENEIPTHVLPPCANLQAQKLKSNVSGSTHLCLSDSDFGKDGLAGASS
T1 sequence (P35546 29-1115): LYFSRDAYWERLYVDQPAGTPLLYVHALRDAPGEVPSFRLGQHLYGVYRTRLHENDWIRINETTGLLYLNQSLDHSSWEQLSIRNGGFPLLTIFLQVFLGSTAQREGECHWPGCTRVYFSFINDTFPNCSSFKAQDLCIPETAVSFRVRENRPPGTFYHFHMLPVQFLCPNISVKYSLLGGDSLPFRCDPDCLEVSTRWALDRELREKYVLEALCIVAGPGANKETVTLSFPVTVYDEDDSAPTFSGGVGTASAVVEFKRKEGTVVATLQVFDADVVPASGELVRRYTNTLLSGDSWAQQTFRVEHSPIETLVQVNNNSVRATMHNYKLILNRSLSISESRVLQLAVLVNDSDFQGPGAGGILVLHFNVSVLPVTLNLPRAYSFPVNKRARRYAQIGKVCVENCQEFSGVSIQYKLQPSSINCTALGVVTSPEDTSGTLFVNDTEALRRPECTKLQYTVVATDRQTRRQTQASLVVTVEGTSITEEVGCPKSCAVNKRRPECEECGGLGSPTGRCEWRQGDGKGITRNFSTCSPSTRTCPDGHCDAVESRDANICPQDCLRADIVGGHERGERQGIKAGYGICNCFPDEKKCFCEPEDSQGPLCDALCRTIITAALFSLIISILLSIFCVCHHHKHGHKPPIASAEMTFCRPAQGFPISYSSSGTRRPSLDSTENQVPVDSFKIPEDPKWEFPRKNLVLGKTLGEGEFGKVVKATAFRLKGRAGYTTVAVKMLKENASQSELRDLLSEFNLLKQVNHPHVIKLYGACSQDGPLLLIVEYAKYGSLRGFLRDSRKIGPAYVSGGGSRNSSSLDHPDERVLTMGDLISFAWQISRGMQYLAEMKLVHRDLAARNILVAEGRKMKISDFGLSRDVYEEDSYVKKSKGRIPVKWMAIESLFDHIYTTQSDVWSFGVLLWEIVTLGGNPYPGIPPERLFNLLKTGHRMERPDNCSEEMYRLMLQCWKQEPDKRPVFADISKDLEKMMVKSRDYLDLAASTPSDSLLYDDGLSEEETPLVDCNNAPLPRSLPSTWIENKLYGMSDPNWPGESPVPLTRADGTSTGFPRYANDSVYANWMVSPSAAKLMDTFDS
T3 sequence (P06494 23-1257): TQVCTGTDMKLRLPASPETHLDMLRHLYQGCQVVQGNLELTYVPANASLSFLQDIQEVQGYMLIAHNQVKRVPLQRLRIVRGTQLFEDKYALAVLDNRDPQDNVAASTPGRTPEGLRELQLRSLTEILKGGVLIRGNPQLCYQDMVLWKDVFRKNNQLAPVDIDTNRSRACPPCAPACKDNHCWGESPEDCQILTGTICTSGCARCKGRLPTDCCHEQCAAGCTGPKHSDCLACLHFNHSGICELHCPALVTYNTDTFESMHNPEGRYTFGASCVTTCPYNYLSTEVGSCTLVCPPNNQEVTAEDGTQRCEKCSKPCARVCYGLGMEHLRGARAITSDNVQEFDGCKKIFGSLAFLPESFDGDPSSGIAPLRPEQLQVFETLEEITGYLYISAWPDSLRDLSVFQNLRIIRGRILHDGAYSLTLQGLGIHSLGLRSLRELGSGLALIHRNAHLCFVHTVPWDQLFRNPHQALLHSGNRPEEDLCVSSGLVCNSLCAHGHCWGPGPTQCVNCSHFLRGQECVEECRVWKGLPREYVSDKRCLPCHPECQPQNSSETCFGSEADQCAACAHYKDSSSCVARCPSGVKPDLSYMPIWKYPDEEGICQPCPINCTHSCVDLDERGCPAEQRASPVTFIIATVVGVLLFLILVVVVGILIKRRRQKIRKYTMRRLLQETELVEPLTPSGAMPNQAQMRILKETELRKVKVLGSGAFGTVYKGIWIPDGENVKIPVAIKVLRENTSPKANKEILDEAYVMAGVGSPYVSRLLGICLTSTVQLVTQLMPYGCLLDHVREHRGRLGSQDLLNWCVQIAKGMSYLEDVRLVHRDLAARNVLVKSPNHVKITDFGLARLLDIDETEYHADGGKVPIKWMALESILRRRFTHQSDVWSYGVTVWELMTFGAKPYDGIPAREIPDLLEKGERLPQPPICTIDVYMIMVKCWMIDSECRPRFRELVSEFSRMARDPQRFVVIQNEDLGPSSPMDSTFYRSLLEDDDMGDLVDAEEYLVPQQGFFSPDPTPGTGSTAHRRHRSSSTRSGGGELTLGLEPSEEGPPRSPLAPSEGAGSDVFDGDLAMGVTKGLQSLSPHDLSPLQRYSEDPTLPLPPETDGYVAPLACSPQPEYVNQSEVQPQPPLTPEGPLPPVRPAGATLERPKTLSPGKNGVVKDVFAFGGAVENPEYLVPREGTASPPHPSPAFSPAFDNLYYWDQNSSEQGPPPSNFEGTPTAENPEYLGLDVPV
T3 sequence (Q62799 20-1339): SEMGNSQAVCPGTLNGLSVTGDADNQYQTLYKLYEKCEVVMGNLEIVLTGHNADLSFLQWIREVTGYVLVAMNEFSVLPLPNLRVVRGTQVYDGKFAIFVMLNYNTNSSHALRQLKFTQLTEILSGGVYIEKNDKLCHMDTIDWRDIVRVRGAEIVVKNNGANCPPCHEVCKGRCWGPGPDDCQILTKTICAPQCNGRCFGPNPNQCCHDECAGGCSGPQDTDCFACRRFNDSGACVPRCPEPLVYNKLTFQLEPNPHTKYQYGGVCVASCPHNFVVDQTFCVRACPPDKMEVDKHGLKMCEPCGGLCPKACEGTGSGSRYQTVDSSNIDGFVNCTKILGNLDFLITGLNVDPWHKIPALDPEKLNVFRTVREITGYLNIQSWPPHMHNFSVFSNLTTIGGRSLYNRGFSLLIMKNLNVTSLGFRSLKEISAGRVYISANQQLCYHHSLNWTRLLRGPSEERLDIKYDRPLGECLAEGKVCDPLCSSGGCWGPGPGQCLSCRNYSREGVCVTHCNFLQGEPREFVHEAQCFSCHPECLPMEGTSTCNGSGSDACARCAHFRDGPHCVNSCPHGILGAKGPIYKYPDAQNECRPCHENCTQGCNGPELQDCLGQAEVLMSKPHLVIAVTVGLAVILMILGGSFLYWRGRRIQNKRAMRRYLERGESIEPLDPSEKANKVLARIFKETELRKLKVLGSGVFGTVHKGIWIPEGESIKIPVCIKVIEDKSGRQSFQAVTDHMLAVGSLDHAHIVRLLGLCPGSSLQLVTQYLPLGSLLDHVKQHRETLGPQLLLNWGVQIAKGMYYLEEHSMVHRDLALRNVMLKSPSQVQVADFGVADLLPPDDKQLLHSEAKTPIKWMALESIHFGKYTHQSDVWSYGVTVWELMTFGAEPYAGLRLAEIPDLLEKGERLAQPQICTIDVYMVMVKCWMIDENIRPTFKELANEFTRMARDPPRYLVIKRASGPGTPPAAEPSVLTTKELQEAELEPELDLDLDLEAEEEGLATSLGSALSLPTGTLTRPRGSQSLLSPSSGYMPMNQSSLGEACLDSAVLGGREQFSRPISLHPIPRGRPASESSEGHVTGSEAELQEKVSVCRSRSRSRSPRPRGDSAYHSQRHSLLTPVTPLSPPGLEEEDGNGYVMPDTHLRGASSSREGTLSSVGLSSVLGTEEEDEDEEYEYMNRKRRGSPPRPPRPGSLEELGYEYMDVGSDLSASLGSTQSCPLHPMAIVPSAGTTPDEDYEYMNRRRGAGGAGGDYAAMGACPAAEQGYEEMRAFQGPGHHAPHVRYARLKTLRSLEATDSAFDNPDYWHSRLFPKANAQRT

CCN(CC)CCCC(C)Nc1cc(/C=C/c2ccccc2Cl)nc2cc(Cl)ccc12 (centres unmarked) [XIB4035, N4-{7-chloro-2-[(E)-2-(2-chloro-phenyl)-vinyl]-quinolin-4-yl}-N1,N1-diethyl-pentane-1,4-diamine]
sensory function (thermal nociceptive tests) [1]: better sensory function than those exposed to the control cream | induction of RET phosphorylation (GFRα1/RET; XIB4035 alone, 10 minutes): did not induce RET phosphorylation | RET phosphorylation at the 60 min time-point compared to ligand alone (GFRα1/RET; XIB4035 and ligand co-treatment, 60 minutes after washout): clearly prolonged | RET phosphorylation at 60 min (GFRα2/RET): detected | changes in appearance, food intake, skin health or other outward negative signs [2]: no changes | NRG1-dependent activation of ErbB2/ErbB3 (ErbB2/ErbB3): did not influence | c-fiber area (wild type mice): 1.81 ± 0.06 µm² | c-fibers/Remak bundle (wild type mice): 8.80 ± 0.52
